From ChEMBL document CHEMBL5325400 (Eur J Med Chem, 2023)
Calls of active or inactive are those of the source. The calls are words filed in the database; no cut-off is given here.

Tests used:
[1] = biological target: Tubulin; experiment: Binding affinity to tubulin (unknown origin) assessed as dissociation constant by SPR analysis; format: protein-complex assay, Homo sapiens
[2] = AUC(0 to infinity) in Sprague-Dawley rat at 1 mg/kg, iv by LC-MS analysis; format: ADME, organism-based; parameters: dose 1 mg/kg, route iv; settings: in vivo
[3] = Toxicity in BALB/c mouse assessed as drug tolerability at 10 mg/kg, ip; format: organism-based; settings: in vivo
[4] = tested on: A549; experiment: Antitumor activity against human A549 cells xenografted in BALB/c mouse assessed as downregulation of Bcl-2 expression in tumor at 10 mg/kg, ip administered every other day for 25 days by Western blotting analysis; format: functional, organism-based; settings: time 25.0 day
[5] = tested on: B16-F10; experiment: Inhibition of cell migration in mouse B16-F10 cells assessed as total number of cells migrated at 40 nM incubated for 12 hrs by crystal violet staining based transwell assay (reference value: 692 +/- 11); format: functional
[6] = tested on: B16-F10; experiment: Inhibition of cell migration in mouse B16-F10 cells assessed as total number of cells migrated at 10 nM incubated for 12 hrs by crystal violet staining based transwell assay (reference value: 692 +/- 11); format: functional
[7] = tested on: A549; experiment: Antitumor activity against human A549 cells xenografted in BALB/c mouse assessed as tumor volume at 5 mg/kg, ip administered every other day for 25 days; format: functional; settings: time 25 day
[8] = tested on: A2780; experiment: cells; settings: Homo sapiens, A2780, 48 h
Description: Antiproliferative activity against human A2780 cells assessed as inhibition of cell growth incubated for 48 hrs by MTT assay

[9] = Toxicity in BALB/c nude mouse xenografted with human A549 cells assessed as pathological changes in lung at 5 to 10 mg/kg, ip administered every other day for 25 days by hematoxylin and eosin staining based microscopic analysis; format: organism-based; settings: in vivo, 600 h, dose 5-10 mg/kg, time 25 day
[10] = tested on: A549; experiment: Antitumor activity against human A549 cells xenografted in BALB/c mouse assessed as downregulation of Bcl-2 expression in tumor at 5 mg/kg, ip administered every other day for 25 days by Western blotting analysis; format: functional, organism-based; settings: time 25.0 day
[11] = tested on: A549; experiment: Residual cell migration in human A549 cells at 20 nM incubated for 12 hrs by crystal violet staining based transwell assay; settings: A549, 12 h
[12] = tested on: A549; experiment: Antimigratory activity against human A549 cells assessed as inhibition of cell migration at 40 nM and incubated for 12 hrs by scratch wound healing assay (reference value: 29.5 +/- 1.34%); format: functional; parameters: scale not given: the % may be the effect or the level left
[13] = tested on: A549; experiment: Antitumor activity against human A549 cells xenografted in BALB/c mouse assessed as tumor weight at 5 mg/kg, ip administered every other day for 25 days; format: functional, organism-based; settings: time 25.0 day
[14] = tested on: A549; experiment: Induction of apoptosis in human A549 cells assessed as necrotic cells at 10 nM incubated for 24 hrs by annexin V-FITC/propidium iodide staining based flow cytometry analysis (reference value: 2.36%); format: functional
[15] = Cmax in Sprague-Dawley rat at 1 mg/kg, iv by LC-MS analysis; format: ADME, organism-based; parameters: dose 1 mg/kg, route iv; settings: in vivo
[16] = Half life in Sprague-Dawley rat at 1 mg/kg, iv by LC-MS analysis; format: ADME, organism-based; settings: in vivo
[17] = Volume of distribution in Sprague-Dawley rat at 1 mg/kg, iv by LC-MS analysis; format: ADME, organism-based; settings: in vivo
[18] = tested on: A549; experiment: Induction of cell cycle arrest in human A549 cells assessed as accumulation at G2 phase at 10 nM incubated for 24 hrs by PI staining based flow cytometry (Rvb= 12.49%); format: functional
[19] = tested on: HepG2; experiment: Antiproliferative activity against human HepG2 cells assessed as inhibition of cell growth measured after 48 hrs by MTT assay; format: functional, cell-based; settings: HepG2, 48 h
[20] = tested on: A549; experiment: Induction of apoptosis in human A549 cells assessed as late apoptotic cells at 40 nM incubated for 24 hrs by annexin V-FITC/propidium iodide staining based flow cytometry analysis (reference value: 0.37%); format: functional
[21] = tested on: A549; experiment: Induction of cell cycle arrest in human A549 cells assessed as accumulation at G1 phase at 40 nM incubated for 24 hrs by PI staining based flow cytometry (Rvb= 65.68%); format: functional
[22] = tested on: A549; experiment: Induction of apoptosis in human A549 cells assessed as upregulation of Bad protein at 10 to 40 nM measured after 48 hrs by Western blot analysis; format: functional, cell-based; settings: dose 10-40 nM
[23] = tested on: A549; experiment: Induction of apoptosis in human A549 cells assessed as late apoptotic cells at 20 nM incubated for 24 hrs by annexin V-FITC/propidium iodide staining based flow cytometry analysis (reference value: 0.37%); format: functional
[24] = tested on: A549; experiment: Induction of cell cycle arrest in human A549 cells assessed as accumulation at G1 phase at 10 nM incubated for 24 hrs by PI staining based flow cytometry (Rvb= 65.68%); format: functional
[25] = tested on: A549; experiment: Induction of apoptosis in human A549 cells assessed as viable cells at 10 nM incubated for 24 hrs by annexin V-FITC/propidium iodide staining based flow cytometry analysis (reference value: 96.44%); format: functional; settings: read-out: Activity
[26] = tested on: A549; experiment: Antimigratory activity against human A549 cells assessed as inhibition of cell migration at 5 nM and incubated for 12 hrs by scratch wound healing assay (reference value: 29.5 +/- 1.34%); format: functional; parameters: scale not given: the % may be the effect or the level left
[27] = tested on: A549; experiment: Induction of apoptosis in human A549 cells assessed as viable cells at 40 nM incubated for 24 hrs by annexin V-FITC/propidium iodide staining based flow cytometry analysis (reference value: 96.44%); format: functional; settings: read-out: Activity
[28] = tested on: A549; experiment: Antitumor activity against human A549 cells xenografted in BALB/c mouse assessed as tumor weight at 10 mg/kg, ip administered every other day for 25 days; format: functional, organism-based; settings: time 25.0 day
[29] = tested on: A549; experiment: Inhibition of colony formation in human A549 cells at 20 nM incubated for 6 days by crystal violet staining based analysis; format: functional, cell-based; settings: time 6.0 day
[30] = tested on: A549; experiment: Antitumor activity against human A549 cells xenografted in BALB/c mouse assessed as tumor volume at 10 mg/kg, ip administered every other day for 25 days; format: functional; settings: time 25 day
[31] = AUC(0 to t) in Sprague-Dawley rat at 1 mg/kg, iv by LC-MS analysis; format: ADME, organism-based; parameters: dose 1 mg/kg, route iv; settings: in vivo
[32] = tested on: A549; experiment: Induction of cell cycle arrest in human A549 cells assessed as accumulation at S phase at 10 nM incubated for 24 hrs by PI staining based flow cytometry (Rvb= 20.94%); format: functional
[33] = tested on: A549; experiment: Induction of apoptosis in human A549 cells assessed as downregulation of Bcl-2 protein at 10 to 40 nM measured after 48 hrs by Western blot analysis; format: functional, cell-based; settings: dose 10-40 nM
[34] = tested on: A549; experiment: Residual cell migration in human A549 cells at 10 nM incubated for 12 hrs by crystal violet staining based transwell assay; settings: A549, 12 h
[35] = tested on: A549; experiment: Inhibition of cell migration in human A549 cells assessed as total number of cells migrated at 10 nM incubated for 12 hrs by crystal violet staining based transwell assay (reference value: 724 +/- 16); format: functional
[36] = tested on: A549; experiment: Antiproliferative activity against human A549 cells expressing lentivirus RNAi VTI-96660 assessed as inhibition of cell growth measured after 48 hrs by MTT assay; format: functional, cell-based
[37] = tested on: B16-F10; experiment: Inhibition of cell migration in mouse B16-F10 cells assessed as total number of cells migrated at 20 nM incubated for 12 hrs by crystal violet staining based transwell assay (reference value: 692 +/- 11); format: functional

- Kd [1]: 43200 nM
- AUC [2]: 239.43 ng·h/mL
- IC50 [8]: 16 nM
- Cmax [15]: 87.86 ng/mL
- t1/2 [16]: 13.2 min
- Vd [17]: 1.3 L/kg
- IC50 [19]: 1.8 nM
- AUC(0-t) [31]: 239 ng·h/mL
SMILES: COc1cccc(Nc2cc(Nc3cccc(NC(=O)C4CC4)c3)ncn2)c1
- Activity [3]: Non-Toxic
- Activity [4]: Active
- Activity [5]: 221
- Activity [6]: 510
- Activity [7]: 42.51%
- Activity [9]: Non-Toxic
- Activity [10]: Active
- level, % of control at 0.02 µM [11]: 56.3%
- Activity [12]: 6.1%
- Activity [13]: Active
- Activity [14]: 6.5%
- Activity [18]: 23.37%
- Activity [20]: 26.72%
- Activity [21]: 21.8%
- Activity [22]: Active
- Activity [23]: 16.31%
- Activity [24]: 58.47%
- viability at 0.01 µM [25]: 82.2%
- Activity [26]: 23.2%
- viability at 0.04 µM [27]: 63.6%
- Activity [28]: Active
- inhibition [29]: Active
- Activity [30]: 63.77%
- Activity [32]: 15.3%
- Activity [33]: Active
- level, % of control at 0.01 µM [34]: 70.6%
- Activity [35]: 486
- Activity [36]: Active
- Activity [37]: 319
